Experimental data taken from EP2332529A1, “Substituted aromatic diamines as ligands of vesicular glutamate transporter 1 and 2 (vGLUT1 and vGLUT2)” (Grünenthal GmbH, priority 2009, dated 2011).
Read-outs that look alike come from different tables or passages of the source.

Key:
[1] = test system: vGLUT1- bzw. vGLUT2-Transporter; assay: Glutamate uptake in rat crude synaptic vesicles ([3H]-glutamate); assay type: biochemical, Ratte; conditions: for vGLUT (Ratte), Hemmung [%]: test concentration not given
Text: Die agonistische bzw. antagonistische Wirkung der zu untersuchenden Verbindungen am vGLUT1- bzw. vGLUT2-Transporter der Spezies Ratte kann mit folgendem Assay bestimmt werden.
Glutamat-Uptake in Rattenvesikel ('rat crude synaptic vesicles')
Die Präparation von Vesikeln wurde aus Rattengehirn-Homogenaten (männlichen Ratten, Stamm Wistar SPF, 150-250 g Gewicht) durchgeführt gemäß Roseth et al. (1995) J. Neurochem. 65: 96-103, der sich auf Whittaker et al. (1964) Biochem J. 90, 293-303 und Fykse und Fonnum (1988) J. Neurochem. 50: 1237-1242 bezieht.
Hierzu wurden frisch entnommene Rattengehirne in 0,32 M Saccharose, 10 mM TRIS-maleat, 1 mM EGTA, pH 7,4 (10 ml/g Frischgewicht) mit einem Potter-Homogenisator (Fa. Braun/Melsungen; 5 Kolbenhübe bei 800 Upm) unter Eiskühlung homogenisiert und anschließend für 10 Minuten bei 3.000 g und 4°C zentrifugiert. Der resultierende Überstand wurde bei 20.000 g für 30 Minuten bei 4°C zentrifugiert. Das entstandene Pellet wurde dann im Verhältnis 1:3 mit 10 mM TRIS-maleate, 0,1 mM EGTA, pH 7,4 osmotisch geschockt und die Suspension bei 17000g für 30 min (4°C) zentrifugiert. Die im Überstand verbliebenen Vesikel wurden nun auf einen Dichtegradienten aus 0,6 M Saccharose in 10 mM TRIS-maleat, 1 mM EGTA, pH 7.4 und 0.4 M Saccharose in 10 mM TRIS-maleat, 1 mM EGTA, pH 7.4 geschichtet. Eine Ultrazentrifugation der Gradienten im Ausschwingrotor bei 65000g für 2h (4°C) schloss sich an. Die Vesikel-Fraktion wurde von der 0.4 M Saccharose-Bande isoliert und im Uptake-Versuch eingesetzt.
Die Substratlösung für den Uptake von [^3H]-Glutamat bestand aus ATP (neutralisiert mit Trisma base; 2 mM im Endansatz), Glutamat (0.5 mM im Endansatz) und ^3H-Glutamat (0.5 µCi im Endansatz). In 14 ml-Reagiergefäßen (Sarstedt, Artikel-Nr.: 798438) wurden jeweils 0,3 ml Gesamtvolumina (n=2/Probe) pipettiert in der folgenden Reihenfolge: 1.) 165 µl Inkubationspuffer (110 mM Kaliumtartrat, 10 mM TRIS-maleat, pH 7,4, 4 mM MgCl2), 2.) 10 µl Testsubstanz oder Vehikelkontrolle oder blank, 3.) 100 µl synaptische Vesikel. Es schloss sich eine Vorinkubation von 15 min bei 30°C an (nur blank-Ansätze befanden sich hierbei auf Eis). Danach wurde der Uptake durch Zugabe von 25 µl der oben beschriebenen Substratlösung gestartet. Die Reaktion wurde nach 5 min durch Zugabe von 7,0 ml eiskalter 150 mM KCl gestoppt. Anschließend wurden die Proben mit Hilfe des Brandel Cell Harvesters Typ M-24R über einen Membranfilter der Porengröße 0,8 µm abgesaugt und zweimal mit eiskalter 150 mM KCl nachgewaschen. Die Messung erfolgte am beta-Counter nach 15 h in 10 ml Szintillatorflüssigkeit (Filter Count).

Mäusen (NMRI) = assay: Formalin test in the mouse (second phase); assay type: in vivo; conditions: Maus i.p., 21,5 mg/kg
Text: Die Untersuchung zur Bestimmung der antinociceptiven Wirkung der Verbindungen der allgemeinen Formel (I) wird im Formalin-Test an männlichen Mäusen (NMRI, 25 bis 35 g Körpergewicht, Iffa, Credo, Belgien) durchgeführt.
Im Formalin-Test werden gemäß D. Dubuisson et al., Pain 1977, 4, 161-174 die erste (frühe) Phase (0 bis 15 Minuten nach der Formalin-Injektion) und die zweite (späte) Phase (15 bis 60 Minuten nach der Formalin-Injektion) unterschieden. Die frühe Phase stellt als direkte Reaktion auf die Formalin-Injektion ein Modell für Akutschmerz dar, während die späte Phase als Modell für persistierenden (chronischen) Schmerz angesehen wird (T. J. Coderre et al., Pain 1993, 52, 259-285). Die entsprechenden Literaturbeschreibungen werden hiermit als Referenz eingeführt und gelten als Teil der Offenbarung. […]
Anschließend wird für einen Untersuchungszeitraum von drei Minuten in der zweiten (späten) Phase des Formalin-Tests (21 bis 24 Minuten nach der Formalin-Injektion) das nociceptive Verhalten durch Beobachtung der Tiere kontinuierlich erfasst. Die Quantifizierung des Schmerzverhaltens erfolgt durch Summation der Sekunden, in denen die Tiere in dem Untersuchungszeitraum ein Lecken und Beißen der betroffenen Pfote zeigen. […]

NMRI-Mäuse = assay: Phenylquinone-induced writhing test in the mouse; assay type: in vivo; conditions: 10 mg/kg
Text: Die Untersuchung der Verbindungen der allgemeinen Formel (I) auf analgetische Wirksamkeit wurde im Phenylchinon-induzierten Writhing an der Maus, modifiziert nach I.C. Hendershot und J. Forsaith (1959) J. Pharmacol. Exp. Ther. 125, 237-240 durchgeführt. Die entsprechende Literaturbeschreibung wird hiermit als Referenz eingeführt und gilt als Teil der Offenbarung.
Dazu wurden männliche NMRI-Mäuse mit einem Gewicht von 25 bis 30 g verwendet. Gruppen von 10 Tieren pro Verbindungsdosis erhielten 10 Minuten nach intravenöser Gabe der zu untersuchenden Verbindungen 0,3 ml/Maus einer 0.02%igen wässrigen Lösung von Phenylchinon (Phenylbenzochinon, Fa. Sigma, Deisenhofen, Deutschland; Herstellung der Lösung unter Zusatz von 5 Gew.-% Ethanol und Aufbewahrung im Wasserbad bei 45°C) intraperitoneal appliziert. Die Tiere wurden einzeln in Beobachtungskäfige gesetzt. Mit Hilfe eines Drucktastenzählers wurde die Anzahl der schmerzinduzierten Streckbewegungen (sogenannte Writhingreaktionen = Durchdrücken des Körpers mit Abstrecken der Hinterextremitäten) 5 bis 20 Minuten nach der Phenylchinon-Gabe ausgezählt. Als Kontrolle wurden Tiere mit geführt, die Vehikellösung (i.v.) und Phenylchinon (i.p.)erhalten hatten. Alle Verbindungen wurden in der Standarddosierung von 10 mg/kg getestet. […]

Sprague-Dawley Ratten = assay: Neuropathic pain in the rat, Bennett model (chronic constriction injury, cold allodynia); assay type: in vivo, Ratte
Method: Die Untersuchung auf Wirksamkeit im neuropathischen Schmerz wurde im Bennett-Modell (chronic constriction injury; Bennett und Xie, 1988, Pain 33: 87-107) untersucht.
Sprague-Dawley Ratten mit einem Gewicht von 140-160 g werden unter Nembutal-Narkose mit vier losen Ligaturen des rechten nervus ischiaticus versehen. Die Tiere entwickeln an der vom geschädigten Nerv innervierten Pfote eine Überempfindlichkeit, die nach einer Erholungsphase von einer Woche über etwa vier Wochen mittels einer 4°C kalten Metallplatte quantifiziert wird (Kälte-Allodynie). Die Tiere werden für einen Zeitraum von 2 min. auf dieser Platte beobachtet und die Anzahl der Wegziehreaktionen der geschädigten Pfote wird gemessen. Bezogen auf den Vorwert vor Substanzapplikation wird die Substanzwirkung über einen Zeitraum von einer Stunde an vier Zeitpunkten (15, 30, 45, 60 min. nach Applikation) bestimmt und die resultierend Fläche unter der Kurve (AUD) sowie die Hemmung der Kälte-Allodynie zu den einzelnen Messpunkten in Prozent Wirkung zur Vehikelkontrolle (AUD) bzw. zum Ausgangswert (Einzelmesspunkte) ausgedrückt (%MPE). Die Gruppengröße beträgt n=10, die Signifikanz einer anti-allodynischen Wirkung wird über eine Varianzanalyse (repeated measures ANOVA; * p ≤ 0.05; Armitage und Berry, 1987, Stat. Methods in Medical Research, London: Blackwell Scientific Publications) bestimmt.

[2] = compound freshly dissolved from the solid substance, read-out: vGLUT (Ratte), IC50-Fest

Molecule	IC50 [1, 2] [nM]	vGLUT (Ratte), Hemmung [%] [1] [%]	IC50 ([1]; read-out: vGLUT (Ratte), IC50) [nM]	further results
2,2'-(3,3'-Sulfonyl-bis-(4,1-phenylen)-bis-(azanediyl))-bis-(oxomethylen)-bis-(azanediyl)dibenzoesäure [Beispiel 10]	2350	86		
O=C(Cc1ccccc1)Nc1ccc(Cc2ccc(NC(=O)Cc3ccccc3)c(C(=O)O)c2)cc1C(=O)O [Beispiel 1, 5,5'-Methylen-bis(2-(2-phenylacetamido)benzoesäure)]		61	9160	
CC(=O)Nc1cc(C(=O)c2ccc(C(=O)O)c(NC(C)=O)c2)ccc1C(=O)O [Beispiel 2, 4,4'-Carbonyl-bis(2-acetamidobenzoesäure)]		47		
O=C(c1ccc(C(=O)O)c(NC(=O)c2cccc3ccccc23)c1)c1ccc(C(=O)O)c(NC(=O)c2cccc3ccccc23)c1 [Beispiel 3, 4,4'-Carbonyl-bis(2-(1-naphthamido)benzoesäure)]		97	380	
Nc1ccccc1C(=O)Nc1ccc(-c2ccc(NC(=O)c3ccccc3N)c(C(=O)O)c2)cc1C(=O)O [Beispiel 4, 4,4'-Bis-(2-amino-benzoylamino)-biphenyl-3,3'-dicarbonsäure]	93	99	43.2	
O=C(O)c1cc(-c2ccc(NC(=O)c3cccc4ccccc34)c(C(=O)O)c2)ccc1NC(=O)c1cccc2ccccc12 [Beispiel 5, 4,4'-Bis-[(naphthalin-1-carbonyl)-amino]-biphenyl-3,3'-dicarbonsäure]		50		
Nc1ccccc1C(=O)Nc1ccc(-c2ccc(NC(=O)c3ccccc3N)c(C(=O)O)c2)cc1C(=O)O [Beispiel 6, 4,4'-Bis-(2-aminobenzamido)biphenyl-3,3'-dicarbonsäure]	38	101	89.7	
O=C(O)c1cc(NC(=O)c2cccc3ccccc23)c(C(=O)O)cc1NC(=O)c1cccc2ccccc12 [Beispiel 7, 2,5-Bis-[(naphthalin-1-carbonyl)-amino]-terephthalsäure]		78	2340	
Cc1ccc(S(=O)(=O)Nc2ccc(-c3ccc(NS(=O)(=O)c4ccc(C)cc4)c(C(=O)O)c3)cc2C(=O)O)cc1 [Beispiel 8, 4,4'-Bis-(4-methylphenylsulfonamid)biphenyl-3,3'-dicarbonsäure, Dinatriumsalz]	490	92		Formalin-Test Maus i.p.; Hemmung [%] (Mäusen (NMRI)): 51%@21,5 mg/kg; Phenylchinon-Writhing-Test Maus i.v. [Anzahl Writhing-Reaktionen in 15 min. p. appl.] (NMRI-Mäuse; Kontrolle 9,1±0,41): 7,8±1,16@10 mg/kg,; Anzahl Tiere mit ≤ 3 Writhing-Reaktionen (NMRI-Mäuse; Maus i.v.): (Anzahl Tiere mit ≤ 3 Writhing-Reaktionen: 1); Bennett-Test Ratte; Hemmung [%] (Sprague-Dawley Ratten; Ratte, 4,64 mg/kg (i.v.)): 37%@ 4,64 mg/kg (i.v.)
Cc1ccc(S(=O)(=O)Nc2ccc(Cc3ccc(NS(=O)(=O)c4ccc(C)cc4)c(C(=O)O)c3)cc2C(=O)O)cc1 [Beispiel 9, 5,5'-Methylen-bis(2-(4-methylphenylsulfonamido)benzoesäure)]		47		
Cc1ccc(S(=O)(=O)Nc2ccc(-c3ccc(NS(=O)(=O)c4ccc(C)cc4)c(C(=O)O)c3)cc2C(=O)O)cc1 [Beispiel 11, 4,4'-Bis(tolyl-4-sulfonylamino)biphenyl-3,3'-dicarbonsäure]	1530	97		
O=C(Nc1ccc(-c2ccc(NC(=O)c3ccccc3)c(C(=O)[O-])c2)cc1C(=O)[O-])c1ccccc1.[Na+].[Na+] [Beispiel 12, 4,4'-Bis-(benzamido)-biphenyl-3,3'-dicarbonsäure, Dinatriumsalz]	39	102		Bennett-Test Ratte; Hemmung [%] (Sprague-Dawley Ratten; Ratte, 0,2 mg/kg/5 ml (i.p)): 38%@0,2 mg/kg/5 ml (i.p)
Nc1ccccc1C(=O)Nc1ccc(-c2ccc(NC(=O)c3ccccc3N)c(C(=O)O)c2)cc1C(=O)O [Beispiel 13, 4,4'-Bis-(2-aminobenzamido)biphenyl-3,3'-dicarbonsäure, Dinatriumsalz]	600	96		
Nc1ccc(-c2ccc(N)c(C(=O)O)c2)cc1C(=O)O [Beispiel 14, 4,4'-Bisaminobiphenyl-3,3'-dicarbonsäure, Dinatriumsalz]	47800	24		
